# Measured values as given in patent US11839661B2, “Rapid formation of supramolecular hydrogels by short peptide and bioactive small molecules” (BRANDEIS UNIVERSITY, priority 2017, dated 2023).
# Square brackets hold non-standard residues; d marks the D form. Ends that are not written are not given here. Peptide text beside a SMILES is read from it. * marks the point of attachment. Acetyl(thymin-1-yl) = Cc1cn(CC(=O)*)c(=O)[nH]c1=O; Acetyl(2-naphthyl) = O=C(Cc1ccc2ccccc2c1)*
# Key:
# MES-SA/dx5 cells [1] = assay: CLSM of inhibition of Dox efflux pump; format: cell-based; details: MES-SA/dx5 cells without NP1 treatment, five hours after changing to medium without Dox
# Method: Confocal Laser Scanning Microscopy (CLSM) Images of the Inhibition of Efflux Pump: To determine the potential drug efflux inhibitory effect by nucleopeptides, the drug efflux of free DOX was evaluated without or with incubation with nucleopeptide in efflux pumps overexpressing MES-SA/dx5 cells. After seeding 1.5×10^5 cells into 3.5 cm confocal dish and incubating at 37° C. for 24 h, the cells were incubated either with 10 μM free Dox or Dox with different concentration of nucleopeptide for 4 h. Then the medium was removed and the cells were washed three times with culture medium, and subsequently incubated with fresh complete medium for different time intervals (0, 2 or 5 h). At the end of incubation time, the cells were washed twice by live cell imaging buffer and stained nucleus by Hoechst 33342 for 10 minutes. After washed twice by live cell imaging, the cells were imaged immediately by Zeiss 880 microscope at the lens of 60×.
# MES-SA/dx5 cells [2] = assay: MTT assay; format: cell-based; details: 48 hours
# Method: Cell culture and MTT assay: Cell culture was carried out with MES-SA/dx5 cells purchased from Sigma-Aldrich Corporation. These cells were cultured in Macyo's 5A medium supplemented with 10% v/v fetal bovine serum, 100 U/mL penicillin and 100 μg/mL streptomycin. The condition for cell culture was 37° C. in a humidified atmosphere of 5% CO2. The MTT assay was carried out using MES-SA/dx5 cells seeded in a 96-well plate with a density of 1*10^4 cells per-well (total medium volume of 100 μL). 24 hours post seeding, after the removal of the medium, solutions with serial of concentrations (5 concentrations) of different nucleopeptides were added to each well. Cells without the treatment of the precursors were used as the control. At designated time (24/48/72 hours), 10 μL MTT solution (5 mg/mL) was added to each well and incubated at 37° C. for another 4 h, and then 100 μL of SDS-HCl solution was added to stop the reduction reaction and dissolve the purple formazan. The absorbance of each well at 595 nm was measured by a multimode microplate reader. The cytotoxicity assay was performed three times and the average value of the three measurements was taken. All the statistical analysis used mean±SEM. The range of SEM is from 0.04 to 2.21.
# [3] = tested on: HS-5 (Human Bone Marrow Stromal) cell lines; assay: Biocompatibility with HS-5 cell lines; format: cell-based; details: HS-5 cells, over 3 days, concentration range 20-500 μM
# Excerpt: The biocompatibility of peptide 1 with HS-5 (Human Bone Marrow Stromal) cell lines was investigated over 3 days. […] It is expected, therefore, that peptide 1 is also compatible with other types of physiologically normal cells.
# [4] = Hydrogelation / gelation time by vial inverse method; format: physicochemical
# Method: Hydrogel Preparation: Compound 1 (5.0 mg) was dissolved in 1 mL of aqueous buffer (sodium hydroxide was used to adjust the final pH to 7.4), and the hydrogels were formed after the addition of different equivalents of small molecules (initial concentration is 100 mM), the final concentration of 1 is 0.4 wt % in all hydrogels. The gelation time of 1 with different bioactive small molecules was determined by vial inverse method.
# [5] = Rheology (storage and loss moduli); format: physicochemical
# Method: Rheology Experiments: The rheological tests were performed on TA ARES-G2 rheometer, parallel-plate geometry with an upper plate diameter of 25 mm and a gap of 0.4 mm. During the measurement, the stage temperature was maintained at 25° C. by Peltier heating/cooling system. The hydrogel was loaded into stage by spatula. For the rheology testing in Examples 1-7, a time sweep was performed at the frequency of 6.28 rad/s and the strain for 1.0%, and a frequency sweep was performed at the range of 0.1 to 200 rad/s and strain is 1.0%. For the rheology testing in Examples 8-12, a strain sweep (0.1% to 100%) was performed at the frequency of 6.28 rad/s, and a frequency sweep was performed at the range of 0.1 to 200 rad/s and strain is 1.0%.
# [6] = Doxorubicin release from hydrogel; format: physicochemical; details: hydrogel of 1 (0.4 wt %) formed with 1 equivalent pyridoxal, Dox 200 μg/mL, 37° C.
# Method: To load the drug, a solution of Dox (1 mg/mL) was added during the gelling process. After the hydrogel formed by addition of pyridoxal or ATP (final concentration of 1 is 0.4 wt % and doxorubicin was 200 μg/mL). 0.25 mL of PBS (0.1 M phosphate-buffered saline (PBS, pH 7.4) or 0.1 M acetate buffer solution (pH 5.0)) was added onto the surface of the hydrogels, 0.2 mL of solution was taken out at the desired time point and 0.2 mL of PBS was added back. For the following time points, 0.2 mL of PBS was taken out and 0.2 mL of PBS was added back at each point. Using this process, the release of Dox was monitored by measuring the absorbance of Dox at wavelength of 480 nm, and its release profile calculated. The experiment was performed at 37° C. in triplicate. The results are shown in FIGS. 9A-B. As expected, the hydrogel releases the Dox according to the type of small bioactive molecules and pH.
# MBP-ASC^PYD = MBP-ASC^PYD (Homo sapiens, UniProt Q9ULZ3); assay: TEM of MBP-ASC^PYD oligomerization on co-incubation with P5P; format: biochemical; details: P5P 100 μM co-incubated with MBP-ASC^PYD (1 mg/mL, ~18 μM)
# [7] = Sequestration of ATP by nucleopeptide (phase transition); format: binding
# Method: (§1) Sample Preparation and Process for Sequestering ATP by Nucleopeptide: Typically, nucleopeptide […] was dissolved in 1 mL of PBS buffer. A minimal amount of sodium hydroxide was used to adjust the final pH to 7.4 to form 5.0 wt % solution of the nucleopeptide. ATP or ADP was dissolved in PBS buffer at the concentration of 100 mM with the final pH of 7.4. To test sequestration ability of nucleopeptide, we mixed the solution of 5.0 wt % of nucleopeptide with ATP (ADP) in different molar ratio and stirred the mixture with pipettor gently. The mixture was kept at room temperature and used for different characterizations. The sequestration of ATP (or ADP) results in phase transition, from the solution to precipitates or hydrogel, which is observable by naked eyes. Such phase transitions were further characterized by TEM, CD, SLS and rheology according to the same procedure for sample preparation.
# [8] = Interaction of nucleopeptide with ADP (phase transition); format: binding; details: PBS buffer pH 7.4
# Method: as §1
# [9] = 1 at 0.4 wt %, 1 equivalent folinic acid
# [10] = 1 at 0.4 wt %, 1 equivalent pyridoxal
# [11] = 1 at 0.4 wt %, 4 equivalents folinic acid
# [12] = 1 at 0.4 wt %, 4 equivalents pyridoxal
# Sequence of MBP-ASC^PYD (Q9ULZ3 1-91 limits assumed): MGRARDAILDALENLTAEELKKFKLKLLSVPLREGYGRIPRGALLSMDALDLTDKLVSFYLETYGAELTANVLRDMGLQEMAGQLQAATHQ
molecule,measurement,setting,value
"COc1cccc2c1C(=O)c1c(O)c3c(c(O)c1C2=O)C[C@@](O)(C(=O)CO)C[C@@H]3O[C@H]1C[C@H](N)[C@H](O)[C@H](C)O1 [Dox, doxorubicin, reference compound]",cellular retention of Dox (efflux),MES-SA/dx5 cells [1],little Dox
same,cell death,MES-SA/dx5 cells [2]; Dox alone (5 mm as printed),46%
"Cc1cn(CC(=O)N[C@H](Cc2ccccc2)C(=O)N[C@H](Cc2ccccc2)C(=O)N[C@H](CCCCN)C(=O)N[C@H](CCCCN)C(=O)N[C@H](Cc2ccccc2)C(=O)N[C@H](CCCCN)C(=O)N[C@H](CC(C)C)C(=O)N[C@H](CCCCN)C(=O)N[C@H](CC(C)C)C(=O)O)c(=O)[nH]c1=O [NP1, thyminylacetyl-ffkkfklkl] ({Acetyl(thymin-1-yl)}-[dF][dF][dK][dK][dF][dK][dL][dK][dL]-OH)",cytotoxicity,MES-SA/dx5 cells [2]; NP1 by itself,little cytotoxicity
CC(C)C[C@H](NC(=O)[C@H](CCCCN)NC(=O)[C@H](CC(C)C)NC(=O)[C@H](CCCCN)NC(=O)[C@H](Cc1ccccc1)NC(=O)[C@H](CCCCN)NC(=O)[C@H](CCCCN)NC(=O)[C@H](Cc1ccccc1)NC(=O)[C@H](Cc1ccccc1)NC(=O)Cc1ccc2ccccc2c1)C(=O)O [Peptide 1] ({Acetyl(2-naphthyl)}-FFKKFKLKL-OH; C-terminus assumed),biocompatibility,[3],cell-compatible
same,tendency for hydrogelation (state in aqueous solution),"[4]; 1 alone, 0.4 wt %, pH 7.4",transparent viscous solution
same,gelation time,"[4]; 1 at 0.4 wt %, 1 equivalent AMP",11 s
same,gelation time,[4]; [9],about 8 seconds
same,gelation time (sol-gel phase transition),[4]; [10],190 s
same,gelation time,"[4]; 1 at 0.4 wt %, 1 or 4 equivalents ATP",about 7 seconds
same,gelation time,"[4]; 1 at 0.4 wt %, 4 equivalents AMP",5 s
same,gelation time,[4]; [11],~7 s
same,gelation time,[4]; [12],≤ 19 s
same,gelation time,"[4]; 1 at 0.4 wt %, four molar equivalents of P5P",4 s
same,gelation time,"[4]; 1 at 0.4 wt %, pH 7.4, equal molar P5P",≤ 10 s
same,gelation time,"[4]; 1 at 0.4 wt %, two to four molar equivalents of P5P",≤ 10 s
same,storage modulus,[5]; [9],64 Pa
same,cross point of G′ and G″,[5]; [10],77 s
same,storage modulus G′,[5]; [10],55 Pa
same,storage modulus,[5]; [11],78 Pa
same,storage modulus G′,[5]; [12],980 Pa
same,storage modulus G′,"[5]; 1 at 0.4 wt %, one equivalent of P5P",40 Pa
same,mechanical properties,[5]; 1 in the presence of ATP or AMP,change little
same,storage modulus G′,"[5]; 1 itself, 0.4 wt %, after 1 h incubation",around 6 Pa
same,G′ relative to hydrogel formed with 1 equivalent pyridoxal,[5]; 4 equivalents pyridoxal,18 times
same,G′ relative to G′ of 1 itself,[5]; one equivalent of P5P,8 times
same,release of doxorubicin from hydrogel,"[6]; pH 5.0, 12 h",about 85%
same,release of doxorubicin from hydrogel,"[6]; pH 7.4, 12 h",50%
"Cc1ncc(COP(=O)(O)O)c(C=O)c1O [Peptide P5P, pyridoxal-5-phosphate]",oligomerization of MBP-ASC^PYD,MBP-ASC^PYD,modulates the oligomerization
thyminylacetyl-FF [NP11],ability to sequester ATP,[7],unable to sequester ATP
thyminylacetyl-FFK [NP10],ability to sequester ATP,[7],unable to sequester ATP
thyminylacetyl-FFKK [NP9],ability to sequester ATP,[7],unable to sequester ATP
thyminylacetyl-FFKKF ({Acetyl(thymin-1-yl)}-FFKKF) [NP6],ability to sequester ATP,[7],able to sequester ATP
thyminylacetyl-FFKKFK ({Acetyl(thymin-1-yl)}-FFKKFK) [NP8],ability to sequester ATP,[7],unable to sequester ATP
thyminylacetyl-FFKKFKL ({Acetyl(thymin-1-yl)}-FFKKFKL) [NP4],ability to sequester ATP,[7],able to sequester ATP
thyminylacetyl-FFKKFKLK ({Acetyl(thymin-1-yl)}-FFKKFKLK) [NP7],ability to sequester ATP,[7],unable to sequester ATP
thyminylacetyl-FFKKFKLKL ({Acetyl(thymin-1-yl)}-FFKKFKLKL) [NP2],ability to sequester ATP,[7],able to sequester ATP
same,phase transition after addition of ATP,[7]; PBS buffer pH 7.4,precipitates
same,phase transition in the presence of ADP,[8],remains as a transparent solution
thyminylacetyl-KKFKLKL ({Acetyl(thymin-1-yl)}-KKFKLKL) [NP12],ability to sequester ATP,[7],unable to sequester ATP
thyminylacetyl-ffkkf [NP5],ability to sequester ATP,[7],able to sequester ATP
thyminylacetyl-ffkkfkl [NP3],ability to sequester ATP,[7],able to sequester ATP
